Measurements as given in patent US8796258B2, “Cyclic azabenzimidazole derivatives useful as anti-diabetic agents” (Merck Sharp & Dohme Corp., priority 2011, dated 2014).

Tests used:
ob/ob and db/db mice = conditions: cited from earlier work
[1] = test system: obese Zucker (fa/fa) rats; conditions: 7 week administration; cited from earlier work
[2] = test system: rats displaying characteristics of insulin resistance syndrome; conditions: rat, in vivo; cited from earlier work
[3] = molecular target: T1, recombinant human AMPK complex 1 (containing α1β1γ1) (Homo sapiens, UniProt Q13131+Q9Y478); assay: AMPKSAMSF in vitro AMPK activation assay; type: biochemical; conditions: recombinant human AMPK complex 1 (α1β1γ1); for Emax: 10-point titration, read-out: % Maximum AMP Activation of human AMPK Complex 1; for EC50: inflection point reflecting 50% of the maximum activation
T1 construct: made in house; host or cells: Spodoptera frugiperda Sf21 cells, baculovirus (pBacPak9 clones, triple infection)
Description: The recombinant human AMPK complex 1 (containing α1β1γ1) was obtained from baculovirus expression system. Recombinant viruses were generated by cotransfection of AMPK/pBacPak9 clones with Baculogold baculovirus DNA (Pharmingen) in spodoptera frugiperda 21 cells according to the manufacturer's instructions. Each round of virus amplification was performed for 5 days in Grace's medium containing 10% serum. Virus that had been subjected to three rounds of amplification was used for all protein production procedures. To express the AMPK complex, sf21 cells were adapted to serum free medium (SF900 II, Invitrogen) by sequential dilution from serum containing stocks into SF9001I medium and maintained in shaker flasks at 90 rpm at 27° C. The recombinant AMPK enzyme complex was produced by triple infection, one recombinant virus for each of the subunits, in sf21 cells under serum free conditions. Cells were infected in log phase, 1×10^6 cells/ml, at a multiplicity of infection of […]. Cells were harvested by centrifugation at 10,000×g for 15 minutes after 72 hours of infection with viruses. The insect cell pellet from 2 liters of culture was resuspended in 50 ml lysis buffer (20 mM Tris-HCl, 50 mM NaCl, 50 mM NaF, 30 mM Na PPi, 0.25 M sucrose, 10 mM ZnCl2, 2 mM DTT, 0.4 mg/ml digitonin) and subjected to two cycles of freeze-thaw lysis in a dry-ice ethanol bath. Insoluble material was removed by centrifugation at 10,000×g and the supernatant was fractionated with use of polyethylene glycol (PEG). The protein fraction precipitating between 2.5 and 6% PEG was used for further purification using a Blue-Sepharose step (Zhou et al, J. Clin. Invest. 108, 1167-1174, 2001).
The in vitro AMPK activation assay is performed in a volume of 30 μl in a 384-well plate. Enzyme reactions were assembled in the microtiter plate by adding 15 μl of 2× enzyme in assay buffer (20 mM HEPES, pH 7.3, 5 mM MgCl2, 3 mM DTT, 0.01% Brij 35 and CamK Kinase, to activate AMPK) to wells which contained either DMSO or compound. The reaction was initiated with the addition of 15 μl 2× substrate mixture containing 200 μM ATP, and 3.0 μM fluorescently labeled SAMS (5-FAM-HMRSAMSGLHLVKRR-COOH) in assay buffer. After 45-minute incubation at 25° C., the reaction was stopped by the addition of 70 μl stop buffer (100 mM HEPES, pH 7.3, 40 mM EDTA, 0.015% Brij 35). Phosphorylated 5-FAM SAMS product is assessed using a Caliper EZ Reader LabChip microfluidics reader. Product conversion is determined by calculating the peak heights of the substrate and product and reporting the product/(product+substrate) peak ratio. The 10-point titration data were expressed as % maximum AMP activation. The results were plotted using 4 parameter fit and the inflection point reflecting 50% of the maximum activation was reported as the EC50.

T1 sequence (Q13131 whole entry): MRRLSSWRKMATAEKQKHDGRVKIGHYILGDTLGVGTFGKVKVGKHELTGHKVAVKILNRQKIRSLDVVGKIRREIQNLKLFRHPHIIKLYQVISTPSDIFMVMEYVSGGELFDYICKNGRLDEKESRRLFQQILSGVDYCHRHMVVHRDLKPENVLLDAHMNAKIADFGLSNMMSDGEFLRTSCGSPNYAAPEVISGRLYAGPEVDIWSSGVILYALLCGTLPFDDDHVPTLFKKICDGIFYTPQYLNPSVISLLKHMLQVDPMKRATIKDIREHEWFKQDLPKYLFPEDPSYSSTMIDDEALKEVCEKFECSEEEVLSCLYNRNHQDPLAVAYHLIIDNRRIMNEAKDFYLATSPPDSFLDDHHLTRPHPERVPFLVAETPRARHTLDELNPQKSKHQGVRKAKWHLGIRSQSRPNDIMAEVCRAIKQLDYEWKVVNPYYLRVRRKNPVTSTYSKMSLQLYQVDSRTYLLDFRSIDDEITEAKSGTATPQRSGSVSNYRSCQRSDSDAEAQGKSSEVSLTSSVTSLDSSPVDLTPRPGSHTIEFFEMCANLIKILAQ
T1 sequence (Q9Y478 whole entry): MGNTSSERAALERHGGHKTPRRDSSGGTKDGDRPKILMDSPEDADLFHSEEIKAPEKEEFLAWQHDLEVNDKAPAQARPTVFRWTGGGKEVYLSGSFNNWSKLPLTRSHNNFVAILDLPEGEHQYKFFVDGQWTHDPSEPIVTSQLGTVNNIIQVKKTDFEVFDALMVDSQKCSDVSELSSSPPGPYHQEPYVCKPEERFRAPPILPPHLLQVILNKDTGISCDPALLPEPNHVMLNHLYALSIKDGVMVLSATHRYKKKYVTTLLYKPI
T1 sequence (P54619 whole entry partner): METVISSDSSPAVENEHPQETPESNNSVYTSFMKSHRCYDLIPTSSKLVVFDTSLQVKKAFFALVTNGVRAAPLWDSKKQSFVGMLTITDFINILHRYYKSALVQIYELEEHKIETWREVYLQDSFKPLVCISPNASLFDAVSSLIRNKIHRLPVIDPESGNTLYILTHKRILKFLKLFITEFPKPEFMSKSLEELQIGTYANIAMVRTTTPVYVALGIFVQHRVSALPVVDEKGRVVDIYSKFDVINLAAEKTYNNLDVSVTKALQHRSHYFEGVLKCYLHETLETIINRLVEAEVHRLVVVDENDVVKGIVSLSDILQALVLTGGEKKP

SMILES	Emax [3]	EC50 [3]	further results
NC(=O)c1ncn([C@@H]2O[C@H](CO)[C@@H](O)[C@H]2O)c1N [AICAR]	–	–	glucose homeostasis (ob/ob and db/db mice; insulin-resistant diabetic (ob/ob) mice): improvement in glucose homeostasis; blood glucose reduction (ob/ob and db/db mice; ob/ob and db/db mice, following 8 weeks of administration): 35%; HDL cholesterol [1]: increase in HDL cholesterol; glucose metabolism as assessed by an oral glucose tolerance test [1]: normalization of glucose metabolism; plasma triglycerides and free fatty acids [1]: reduction in plasma triglycerides and free fatty acids; blood pressure [2]: reduction of blood pressure
Cc1ccc(Oc2nc3nc(-c4ccc(N5CCCC5)cc4)c(Cl)cc3[nH]2)cc1C(=O)O [Example 3]	681%	1 nM	–
O=C(O)[C@H]1CC[C@H](Oc2nc3nc(-c4ccc(-c5ccccc5)cc4)c(Cl)cc3[nH]2)CC1 [Example 29]	798%	7 nM	–
O=C(O)C1CCC(Oc2nc3nc(-c4ccc(N5CCCC5)cc4)c(Cl)cc3[nH]2)CC1 (centres unmarked) [Example 30]	852%	–	–
O=C(O)[C@H]1CC[C@H](Oc2nc3nc(-c4ccc(N5CCCC5)cc4)c(Cl)cc3[nH]2)CC1 [Example 30]	–	24 nM	–
CS(=O)(=O)c1ccc(-c2ccc(-c3nc4nc(O[C@H]5CC[C@H](C(=O)O)CC5)[nH]c4cc3Cl)cc2)cc1 [Example 79, Trans-4-({6-chloro-5-[4′-(methylsulfonyl)biphenyl-4-yl]-1H-imidazo[4,5-b]pyridin-2-yl}oxy)cyclohexanecarboxylic acid]	661%	5 nM	–
OCC1(CO)CC(Oc2nc3nc(-c4ccc(-c5ccccc5)cc4)c(Cl)cc3[nH]2)C1 [Example 111]	813%	28 nM	–
CC(C)(O)[C@H]1C[C@@H](Oc2nc3nc(-c4ccc(-c5ccc(S(C)(=O)=O)cc5)cc4)c(Cl)cc3[nH]2)C1 [Example 130, 2-[cis-3-({6-chloro-5-[4′-(methylsulfonyl)biphenyl-4-yl]-1H-imidazo[4,5-b]pyridin-2-yl}oxy)cyclobutyl]propan-2-ol]	440%	47 nM	–
OC[C@H]1OC[C@H](Oc2nc3nc(-c4ccc(-c5ccccc5)cc4)c(Cl)cc3[nH]2)C[C@@H]1O [Example 140, (2R3S,5R)-5-[[6-chloro-5-(4-phenylphenyl)-1H-imidazo[4,5-b]pyridin-2-yl]oxy]-2-(hydroxymethyl)tetrahydropyran-3-ol]	668%	38 nM	–
O[C@@H]1CO[C@H]2[C@@H]1OC[C@H]2Oc1nc2nc(-c3ccc(-c4ccccc4)cc3)c(Cl)cc2[nH]1 [Example 159, 1,4:3,6-dianhydro-2-O-[5-(biphenyl-4-yl)-6-chloro-1H-imidazo[4,5-b]pyridin-2-yl]-D-mannitol]	373%	4 nM	–
O[C@@H]1CO[C@H]2[C@@H]1OC[C@H]2Oc1nc2nc(-c3ccc(-c4ccc(-n5cccn5)cc4)cc3)c(Cl)cc2[nH]1 [Example 163, (3R,3aR,6R,6aR)-6-[[6-chloro-5-[4-(4-pyrazol-1-ylphenyl)phenyl]-1H-imidazo[4,5-b]pyridin-2-yl]oxy]-2,3,3a,5,6,6a-hexahydrofuro[3,2-b]furan-3-ol]	362%	0.3 nM	–
CC(C)(O)Cn1cc2c(n1)CN(c1ccc(-c3nc4nc(O[C@@H]5CO[C@H]6[C@@H]5OC[C@H]6O)[nH]c4cc3Cl)cc1)C2 [Example 171, (3R,3aR,6R,6aR)-6-[[6-chloro-5-[4-[2-(2-hydroxy-2-methyl-propyl)-4,6-dihydropyrrolo[3,4-c]pyrazol-5-yl]phenyl]-1H-imidazo[4,5-b]pyridin-2-yl]oxy]-2,3,3a,5,6,6a-hexahydrofuro[3,2-b]furan-3-ol]	252%	1 nM	–
CC(C)(F)Cn1cc2c(n1)CN(c1ccc(-c3nc4nc(O[C@@H]5CO[C@H]6[C@@H]5OC[C@H]6O)[nH]c4cc3Cl)cc1)C2 [Example 172]	249%	2 nM	–
O[C@@H]1CO[C@H]2[C@@H]1OC[C@H]2Oc1nc2nc(-c3ccc(-n4cc5c(n4)CNC5)cc3)c(Cl)cc2[nH]1 [Example 177]	368%	18 nM	–
O=S(=O)(NC1CC1)n1cc2c(n1)CN(c1ccc(-c3nc4nc(O[C@@H]5CO[C@H]6[C@@H]5OC[C@H]6O)[nH]c4cc3Cl)cc1)C2 [Example 178]	223%	1 nM	–
O[C@@H]1CO[C@H]2[C@@H]1OC[C@H]2Oc1nc2nc(-c3ccc(-c4ccc(-n5cccn5)nc4)cc3)c(Cl)cc2[nH]1 [Example 179, (3R,3aR,6R,6aR)-6-[[6-chloro-5-[4-(6-pyrazol-1-yl-3-pyridyl)phenyl]-1H-imidazo[4,5-b]pyridin-2-yl]oxy]-2,3,3a,5,6,6a-hexahydrofuro[3,2-b]furan-3-ol]	292%	0.9 nM	–
O[C@@H]1CO[C@H]2[C@@H]1OC[C@H]2Oc1nc2nc(-c3ccc(-c4ccc(-n5cncn5)cc4)cc3)c(Cl)cc2[nH]1 [Example 180, (3R,3a,6R,6aR)-6-[[6-chloro-5-[4-[4-(1,2,4-triazol-1-yl)phenyl]phenyl]-1H-imidazo[4,5-b]pyridin-2-yl]oxy]-2,3,3a,5,6,6a-hexahdrofuro[3,2-b]furan-3-ol]	350%	0.3 nM	–
CC(C)(O)Cc1cnn(-c2ccc(-c3ccc(-c4nc5nc(O[C@@H]6CO[C@H]7[C@@H]6OC[C@H]7O)[nH]c5cc4Cl)cc3)cc2)c1 [Example 190]	374%	1 nM	–
CC(C)(O)Cc1cnn(-c2ccc(-c3ccc(-c4nc5nc(O[C@@H]6CO[C@H]7[C@@H]6OC[C@H]7O)[nH]c5cc4Cl)cc3)nc2)c1 [Example 202, (3R,3aR,6R,6aR)-6-[[6-chloro-5-[4-[5-[4-(2-hydroxy-2-methyl-propyl)pyrazol-1-yl]-2-pyridyl]phenyl]-1H-imidazo[4,5-b]pyridin-2-yl]oxy]-2,3,3a,5,6,6a-hexahydrofuro[3,2-b]furan-3-ol]	372%	1 nM	–
O[C@@H]1CO[C@@H]2C(Oc3nc4nc(-c5ccc(-c6ccc(-c7nnn[nH]7)cc6)cc5)c(Cl)cc4[nH]3)CO[C@H]12 (stereo partly drawn) [Example 207, (3R,3aR,6R,6R)-6-[[6-chloro-5-[4-[4-(1H-tetrazol-5-yl)phenyl]phenyl]-1H-imidazo[4,5-b]pyridin-2-yl]oxy]-2,3,3a,5,6,6a-hexahydrofuro[3,2-b]furan-3-ol]	289%	0.5 nM	–
O[C@@H]1CO[C@H]2[C@@H]1OC[C@H]2Oc1nc2nc(-c3ccc(C#CC4CCNCC4)cc3)c(Cl)cc2[nH]1 [Example 214, (3R,3aR,6R,6aR)-6-((6-chloro-5-(4-(piperidin-4-ylethynyl)phenyl)-1H-imidazo[4,5-b]pyridin-2-yl)oxy)hexahydrofuro[3,2-b]furan-3-ol]	386%	6 nM	–
